A short description of data set [1]: Liver microsomal stability. As to conditions: CD-1, mouse, microsomes. On the technique in general: Microsomes from liver hold many membrane-bound enzymes, among them those of drug oxidation.
Data set [2] is described as follows: Kinetic solubility determination. The conditions noted are these: for solubility kinetic at 24 h: pH 7.4, aqueous buffer, kinetic from dmso stock.
Data set [3] in a line: Plasma protein binding (equilibrium dialysis). As to conditions: male, CD-1, mouse. In general terms: Equilibrium dialysis compares concentrations on both sides of a semipermeable membrane.
Data set [4] can be described thus: Cytotoxicity assay (CellTiter Glo) in NHDF cells. The conditions noted are these: human, CC50, NHDF cells, maximum 40 μM. (In general: In ATP-based viability assays light output follows the ATP content of the culture.)
Data set [5] is described as follows: physchem. The conditions noted are these: pH 7.4.
Data set [6] can be described thus: Mouse plasma stability. The conditions noted are these: male, CD-1, mouse.
Data set [7] concerns CHIKV (strain 181/25mKate). As to the kind of experiment: microbe, parasite or virus in culture. As to conditions: Chikungunya virus, NHDF; for log reduction at 10 µM: 72 h, read-out: titer redn, log. Format: cell-based.
The subject of data set [8] is NHDF cells. Briefly: Cytotoxicity assay (CellTiter Glo) in NHDF cells. As to conditions: NHDF cells, 72 h, maximum 40 μM.
The nature of data set [9]: Cytotoxicity in Vero E6 cells (live cell count, high-content imaging). As to conditions: African green monkey.

Structures are written as SMILES. ≈ marks a conversion by molar mass, not a printed value. A value given as a limit tells only on which side of the number the result lay.

For orientation: half-life means how long it takes for the measured level to halve. As usually defined, the kinetic solubility is the concentration staying in solution when a stock, usually in DMSO, is diluted into the medium. By fraction unbound is commonly meant free concentration divided by total concentration. The CC50 is the concentration at which the toxic effect on the cells reaches its halfway point. The term logD denotes the decadic logarithm of the distribution of all forms, ionised or not, between an organic phase and buffer at a given pH. A word on the EC50: it is the concentration giving half of the maximal effect.

`CC(C)N1CCN(c2cc3nc(C4CCCCN4)n(-c4ccc(Cl)cc4)c(=O)c3cc2Cl)CC1` (racemic) [rac-1x]: the half-life in data set [1] is greater than 2.42 h; in data set [6], greater than 4.82 h. The kinetic solubility at 24 h in data set [2] was 34.6 µM (≈ 17.3 µg/mL). This compound also had an unbound share (fraction unbound) at 4 h, 2 μM in data set [3] of 0.033. This compound also registered a half-maximal cytotoxic concentration (CC50) at 72 h in data set [4] of 20.9 µM. Moreover, the logD in data set [5] was found to be 2.3. In addition, in data set [7], the log reduction at 10 µM was roughly 4.

Consider `COc1c(F)cc(-n2c(C3CCCCN3)nc3cc(N4CCN(C(C)C)CC4)c(Cl)cc3c2=O)cc1F` (racemic) [rac-1h], for which the CC50 entry in [8] (listed as racemic 1h) is listed as “without observed cytotoxicity”. Besides, the cytotoxic concentration (CC50) at 72 h in [4] is greater than 40 µM. Also, the log reduction at 10 µM in data set [7] was determined as 1.3.

Regarding `COc1c(F)cc(-n2c([C@H]3CCCCN3)nc3cc(N4CCN(C(C)C)CC4)c(Cl)cc3c2=O)cc1F` [(R)-1h], the half-life in data set [1] was greater than 2.42 h; in data set [6], greater than 4 h. The “boost in aqueous solubility compared to rac-1x” value in data set [2] (PBS buffer, pH 7.4) turned out to be 5 fold. The kinetic solubility at 24 h in data set [2] was determined as 183 µM (≈ 97.4 µg/mL). Also, the fraction unbound at 4 h, 2 μM in data set [3] is 0.232. In data set [8], this compound came in with a 50% cytotoxic concentration (CC50) of 18.6 µM. Also, the cytotoxic concentration (CC50) at 72 h in [4] is roughly 19 µM. The same compound registered a CC50 at 20 h in data set [9] greater than 20 µM. Moreover, the log reduction at 10 µM in [7] was determined as 4.1. Besides, the EC50 in data set [7] (read-out: EC50 (titer reduction assay, dose response)) came out at 0.86 µM.

Take `COc1c(F)cc(-n2c([C@@H]3CCCN(C)C3)nc3cc(N4CCN(C(C)C)CC4)c(Cl)cc3c2=O)cc1F` [(R)-1y]: the cytotoxic concentration (CC50) at 72 h in data set [4] stood at 23.6 µM. Further, the log reduction at 10 µM in [7] was determined as 1.3.

(Values after publication PMC12621019, “Restructuring Antiviral Quinazolinone Frameworks to Derive and Optimize Inhibitors of Chikungunya Virus” (ACS Medicinal Chemistry Letters, 2025).)
